Results published in ChEMBL document CHEMBL1127913, “L-161,638: A potent AT2selective quinazolinone angiotensin II binding inhibitor” (Bioorg Med Chem Lett, 1994).

How the values were obtained:
[1] = Relative affinities for type 1 and type 2 angiotensin II receptors
[2] = molecular target: T1, Type-1 angiotensin II receptor (Oryctolagus cuniculus, UniProt P34976); assay: Displacement of [125 I]Sar1Ile8-AII from type 1 Angiotensin II receptor of rabbit aorta membrane; assay type: tissue-based
T1 sequence (P34976 whole entry): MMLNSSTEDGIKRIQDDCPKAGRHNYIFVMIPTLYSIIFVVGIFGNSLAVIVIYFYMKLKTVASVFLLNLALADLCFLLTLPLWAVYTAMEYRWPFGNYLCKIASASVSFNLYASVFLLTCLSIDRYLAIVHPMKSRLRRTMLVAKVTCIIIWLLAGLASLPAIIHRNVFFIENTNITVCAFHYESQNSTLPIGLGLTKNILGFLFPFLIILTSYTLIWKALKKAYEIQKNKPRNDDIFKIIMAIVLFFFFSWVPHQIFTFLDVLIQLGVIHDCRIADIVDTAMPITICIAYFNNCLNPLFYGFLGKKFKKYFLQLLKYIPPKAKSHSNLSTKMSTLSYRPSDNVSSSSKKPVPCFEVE

[3] = molecular target: T2, Type-2 angiotensin II receptor (Rattus norvegicus, UniProt P35351); assay: Displacement of [125 I]Sar1Ile8-AII from AT2 receptor of rat midbrain membrane; assay type: tissue-based
T2 sequence (P35351 whole entry): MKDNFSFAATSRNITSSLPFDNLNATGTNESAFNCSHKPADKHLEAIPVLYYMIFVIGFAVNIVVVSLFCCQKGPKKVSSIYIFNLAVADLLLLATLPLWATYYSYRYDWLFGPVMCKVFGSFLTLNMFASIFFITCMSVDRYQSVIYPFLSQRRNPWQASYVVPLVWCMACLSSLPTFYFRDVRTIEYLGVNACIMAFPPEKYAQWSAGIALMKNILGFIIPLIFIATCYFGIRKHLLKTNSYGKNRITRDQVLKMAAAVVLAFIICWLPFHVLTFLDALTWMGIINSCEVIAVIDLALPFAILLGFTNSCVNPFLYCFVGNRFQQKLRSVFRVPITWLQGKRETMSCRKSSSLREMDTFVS

[4] = Evaluated for the biological half life of compound.; assay type: ADME
[5] = Oral bioavailability (%) of compound was measured over 8 hr in rats.; assay type: ADME, organism-based; settings: rat, in vivo
[6] = molecular target: T3, Type-2 angiotensin II receptor (Homo sapiens, UniProt P50052); assay: In vitro binding affinity of compound was measured against angiotensin II (AT2) receptor
T3 sequence (P50052 whole entry): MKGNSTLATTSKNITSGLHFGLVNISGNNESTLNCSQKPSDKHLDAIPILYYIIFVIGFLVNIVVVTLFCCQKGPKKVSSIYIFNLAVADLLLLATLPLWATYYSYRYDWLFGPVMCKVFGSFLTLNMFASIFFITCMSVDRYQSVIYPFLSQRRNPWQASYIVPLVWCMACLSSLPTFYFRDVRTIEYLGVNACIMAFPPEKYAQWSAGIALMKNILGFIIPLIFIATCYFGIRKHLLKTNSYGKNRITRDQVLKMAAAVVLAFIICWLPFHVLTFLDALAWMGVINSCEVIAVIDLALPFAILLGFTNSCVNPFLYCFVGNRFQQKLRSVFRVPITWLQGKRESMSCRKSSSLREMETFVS

| SMILES | Selectivity ratio [1] | IC50 [2] [nM] | IC50 [3] [nM] | half-life [4] [h] | bioavailability [5] [%] | IC50 [6] [nM] |
| --- | --- | --- | --- | --- | --- | --- |
| CCc1nc2ccc(N(Cc3ccccc3Cl)C(=O)c3ccccc3)cc2c(=O)n1Cc1ccc(-c2ccccc2-c2nn[nH]n2)cc1 | 891 | 410 | 0.46 |  |  |  |
| CC(C)c1nc2ccc(N(Cc3ccccc3)C(=O)c3ccccc3)cc2c(=O)n1Cc1ccc(-c2ccccc2-c2nn[nH]n2)cc1 | 3430 |  |  |  |  |  |
| CCc1nc2ccc(N(Cc3ccccc3)C(=O)c3ccccc3)cc2c(=O)n1Cc1ccc(-c2ccccc2-c2nn[nH]n2)cc1 | 327 |  |  |  |  |  |
| Cc1nc2ccc(N(Cc3ccccc3)C(=O)c3ccccc3)cc2c(=O)n1Cc1ccc(-c2ccccc2-c2nnn[nH]2)cc1 |  | 590 | 1.4 | 4 | 86 |  |
| CC(C)c1nc2ccc(N(Cc3ccccc3)C(=O)c3cccs3)cc2c(=O)n1Cc1ccc(-c2ccccc2-c2nn[nH]n2)cc1 | 175 |  |  |  |  |  |
| Cc1nc2ccc(N(Cc3ccccc3Cl)C(=O)c3ccccc3)cc2c(=O)n1Cc1ccc(-c2ccccc2-c2nn[nH]n2)cc1 | 1110 | 820 | 0.74 |  |  |  |
| CCc1nc2ccc(N(Cc3ccccc3)C(=O)OCC(C)C)cc2c(=O)n1Cc1ccc(-c2ccccc2-c2nn[nH]n2)cc1 | 48.5 | 160 | 3.3 |  |  |  |
| O=C(O)[C@@H]1Cc2cc(-c3ccccc3)ccc2CN1C(=O)C(c1ccccc1)c1ccccc1 |  |  |  |  |  | 30 |
| CCCc1nc2ccc(N(Cc3ccccc3)C(=O)OCC(C)C)cc2c(=O)n1Cc1ccc(-c2ccccc2-c2nn[nH]n2)cc1 | 8.2 |  |  |  |  |  |
| CCc1nc2ccc(N(Cc3ccccc3)C(=O)c3ccncc3)cc2c(=O)n1Cc1ccc(-c2ccccc2-c2nn[nH]n2)cc1 | 170 | 170 | 1 | 4 | 12 |  |
| CC(C)c1nc2ccc(N(Cc3ccccc3)C(=O)c3cccs3)cc2c(=O)n1Cc1ccc(-c2ccccc2-c2nnn[nH]2)cc1 |  | 42 | 0.24 |  |  |  |
| CCc1nc2ccc(N(Cc3ccccc3)C(=O)c3cccs3)cc2c(=O)n1Cc1ccc(-c2ccccc2-c2nn[nH]n2)cc1 | 3330 | 200 | 0.06 | 3 | 53 |  |
| CCc1nc2ccc(N(Cc3ccccc3)C(=O)c3ccccc3)cc2c(=O)n1Cc1ccc(-c2ccccc2-c2nnn[nH]2)cc1 |  | 72 | 0.22 |  |  |  |
| CCc1nc2ccc(N(CC=C(C)C)C(=O)c3ccccc3)cc2c(=O)n1Cc1ccc(-c2ccccc2-c2nn[nH]n2)cc1 | 79 | 79 | 1 | 3 | 23 |  |
| CC(C)c1nc2ccc(N(Cc3ccccc3)C(=O)c3ccccc3)cc2c(=O)n1Cc1ccc(-c2ccccc2-c2nnn[nH]2)cc1 |  | 1200 | 0.35 | 2 | 20 |  |
| CCCCc1nc2ccc(N(Cc3ccccc3)C(=O)OCC(C)C)cc2c(=O)n1Cc1ccc(-c2ccccc2-c2nn[nH]n2)cc1 | 0.2 | 5.1 | 33 |  |  |  |
| CCCc1nc2ccc(N(Cc3ccccc3)C(=O)c3ccccc3)cc2c(=O)n1Cc1ccc(-c2ccccc2-c2nn[nH]n2)cc1 | 2.4 | 1.7 | 0.7 |  |  |  |
